# Reference: ChEMBL document CHEMBL1201862, “PubChem BioAssay data set” (2004)
# The source made the active and inactive calls.
# Key:
# [1] = target: T1, Methionyl-tRNA synthetase, putative (Trypanosoma brucei brucei, UniProt Q38C91); format: functional, Trypanosoma brucei brucei strain 927/4 GUTat10.1
# [2] = target: T1, Methionyl-tRNA synthetase, putative; format: functional, Trypanosoma brucei brucei strain 927/4 GUTat10.1; remark: listed apart in the source
# [3] = Counterscreen for inhibitors of Trypanosoma brucei methionyl tRNA synthetase (MetRS): Luminescence-based cell-based high throughput dose response assay to identify compounds that are cytotoxic to Jurkat human T lymphocyte cells.; format: functional
# [4] = luciferase reporter signal suppression in cells – H4 neuroglioma cells, luminescence, dose response (AID 1990); format: functional, cell-based
# [5] = non-specific 3'UTR reporter inhibition in Clone20-Shn3RL – cell-based, Renilla luciferase, cherry-picked, counter-screen for Shn3 inhibitor project, dose response (AID 624133); format: functional
# Paired box protein Pax-8 = Paired box protein Pax-8 (Homo sapiens, UniProt Q06710); assay: PAX8 transcriptional activity inhibition in RMG-I – RMG-I cells, luciferase, cherry-pick, dose response (AID 687027); format: functional, cell-based;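 further: luciferase reporter driven by Pax8 target thyroperoxidase promoter measured by SteadyGlo luminescence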
# [6] = target: ATP-binding cassette sub-family B member 6 (Homo sapiens, UniProt Q9NP58); assay: ABCB6 transporter inhibitors, porphyrin accumulation, dose response, flow cytometry, K562-ABCB6 cells, cherry pick 02 (AID 624487); format: functional; conditions: read-out: EC50_MICROM
# Streptokinase A = target: T2, Streptokinase A (Streptococcus pyogenes serotype M1, UniProt P10520); assay: viability-normalized secreted streptokinase activity reduction – plasminogen activation absorbance, OD405, dose response (AID 1914); format: functional, Streptococcus pyogenes M1 GAS;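 further: secreted streptokinase activity via plasminogen activation per viability signal from cell pellet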
# T2 sequence (P10520 whole entry): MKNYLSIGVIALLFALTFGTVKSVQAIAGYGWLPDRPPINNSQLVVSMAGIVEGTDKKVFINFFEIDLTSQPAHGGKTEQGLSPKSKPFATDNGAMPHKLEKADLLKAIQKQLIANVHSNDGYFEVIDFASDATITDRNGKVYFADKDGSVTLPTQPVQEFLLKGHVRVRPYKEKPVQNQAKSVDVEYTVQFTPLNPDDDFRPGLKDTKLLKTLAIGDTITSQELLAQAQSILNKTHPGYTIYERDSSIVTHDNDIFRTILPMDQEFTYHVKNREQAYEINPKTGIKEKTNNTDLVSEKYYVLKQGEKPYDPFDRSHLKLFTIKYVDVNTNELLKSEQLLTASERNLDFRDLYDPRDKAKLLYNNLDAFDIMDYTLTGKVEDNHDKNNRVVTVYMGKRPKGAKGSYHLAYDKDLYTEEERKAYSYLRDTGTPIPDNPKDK
# Fatty acid synthase [7] = target: T3, Fatty acid synthase (Homo sapiens, UniProt P49327); assay: inhibition of human FAS-TE enzyme activity – biochemical, endpoint fluorescence intensity, uHTS hits, dose response (AID 624327); format: functional;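 further: fluorescence from hydrolysis of an O-methyl fluorescein acyl ester substrate by the enzyme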
# [8] = general cell-killing toxicity readout – plate reader, dry powder samples, cytotoxicity control for PAX8 inhibitor project, dose response (AID 743021); format: functional, cell-based
# [9] = test system: Streptococcus sp. 'group A'; assay: Streptococcus pyogenes SK(-)GAS viability under kanamycin – luminescence, BacTiterGlo, confirmation, counter-screen for streptokinase expression inhibitor project, dose response (AID 1900); format: functional, organism-based
# [10] = loss of viability in HepG2 cells – cell-based, CellTiter-Glo, cherry-picked, cytotoxicity control for Shn3 inhibitor project, dose response (AID 624134); format: functional
# Streptococcus = assay: GAS UMAA2166 growth inhibition – luminescence, BacTiterGlo, counter-screen for streptokinase expression inhibitor project, dose response (AID 1915); format: functional, organism-based;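 further: potency for reduction of bacterial viability or growth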
# INS1 = assay: INS-1E survival protection against cytokine death – cell-based, luminescence, retest, dose response (AID 449756); format: functional; conditions: Rattus norvegicus;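 further: cell death triggered by IL-1 beta plus TNF-alpha plus IFN-gamma mixture; protective hits raise ATP signal compared with cytokine alone wells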
# [11] = Luminescence Cell-Based Dose Response HTS to Identify Inhibitors of 5'UTR Stem-Loop Driven Prion Protein mRNA Translation in H4 Neuroglioblastoma Cells. [Related pubchem assays: 1827 (Project Summary), 1813 (Primary HTS)]; format: functional
# [12] = alpha-synuclein stem-loop luciferase translation blockers – H4 neuroglioma cells, luminescence, confirmation (AID 1988); format: functional, cell-based
# Fatty acid synthase [13] = target: T3, Fatty acid synthase; assay: inhibition of human FAS-TE enzyme activity – biochemical, kinetic fluorescence intensity, dose response (AID 624326); format: functional;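 further: rate of fluorescence rise from hydrolysis of a fluorogenic O-methyl fluorescein ester substrate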
# [14] = reduction of Shn3 3'UTR-driven luciferase in osteoblasts – cell-based, Clone20 osteoblasts, firefly luciferase, cherry-picked, dose response (AID 624132); format: functional;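 further: firefly luciferase luminescence from reporter carrying the Shn3 3'UTR in osteoblasts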
# [15] = target: 5-hydroxytryptamine receptor 2A (Mus musculus, UniProt P35363); format: functional, cell-based;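 further: CHO-K1 cells with tagged receptor and beta-arrestin; agonist potency measured as compound-induced activation of the receptor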
# Mu-type opioid receptor = Mu-type opioid receptor (Homo sapiens, UniProt P35372); format: functional, cell-based;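 further: U2OS cells with beta-arrestin recruitment to OPRM1 by beta-gal complementation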
# Beta-lactamase [16] = target: T4, Beta-lactamase (Pseudomonas aeruginosa, UniProt Q79MP6); assay: […] counterscreen for selective VIM-2 inhibitors: dose response biochemical high throughput screening assay to identify inhibitors of IMP-1 metallo-beta-lactamase.
# Beta-lactamase [17] = target: Beta-lactamase (Salmonella choleraesuis (strain SC-B67), UniProt Q5J463); assay: Epi-absorbance-based counterscreen for selective VIM-2 inhibitors: dose response biochemical high throughput screening assay to identify inhibitors of TEM-1 serine-beta-lactamase.
# Beta-lactamase [18] = target: T4, Beta-lactamase; assay: inhibition of IMP-1 beta-lactamase activity – biochemical, epi-absorbance, selectivity assay for VIM-2 inhibitor project, dose response (AID 1920)
# [19] = activation of miR-122 Renilla sensor silencing – cell-based, Huh7 psiCHECK-miR122, Renilla luciferase, cherry-picked, dose response (AID 651956); format: functional;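 further: huh7 hepatoma cells stably carrying a psiCHECK-2 miR-122 sensor plasmid; renilla luciferase signal reporting endogenous miR-122 activity after 48 h compound exposure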
# [20] = target: T5, Small ubiquitin-related modifier 1 (Homo sapiens, UniProt P63165); assay: SUMO1 protein-protein binding blockers, potency – biochemical, FRET, dose response (AID 624383); format: functional; conditions: read-out: IC50_Mean
# Estrogen receptor = Estrogen receptor (Homo sapiens, UniProt P03372);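 further: potency for inhibiting coactivator peptide recruitment to the receptor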
# Estrogen receptor beta [21] = target: T6, Estrogen receptor beta (Homo sapiens, UniProt Q92731);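 further: recombinant ER-beta bound to coactivator SRC1 peptide in presence of estradiol agonist; inhibitors block coactivator peptide binding and lower the FRET signal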
# [22] = target: T5, Small ubiquitin-related modifier 1; assay: SUMO1 protein interaction blockers, potency – biochemical, fluorescence polarization, uHTS hits, dose response (AID 624382); format: functional; conditions: read-out: IC50_Mean
# Estrogen receptor beta [23] = target: T6, Estrogen receptor beta; assay: blockers of SRC-3 recruitment to ERβ – biochemical, ELISA, streptavidin-HRP readout, orthogonal assay, confirmation (AID 1060)
# Interleukin-8 [24] = target: T7, Interleukin-8 (Homo sapiens, UniProt P10145); assay: Dose Response confirmation of uHTS small molecule hits for cystic fibrosis induced NFkb Inhibitors in a PAF-induced IL8 counterscreen.; format: functional; conditions: read-out: IC50_Mean
# Interleukin-8 [25] = target: T7, Interleukin-8; assay: Dose Response confirmation of uHTS small molecule hits for cystic fibrosis induced NFkb Inhibitors in a TNFa-induced IL8 counterscreen.; format: functional; conditions: read-out: IC50_Mean
# HEK293 = assay: EBV LMP1 TES2 canonical NF-kB signalling blockers – cell-based, HEK293, luciferase, cherry-pick, dose response (AID 588343); format: functional; conditions: Homo sapiens
# [26] = target: T8, Short transient receptor potential channel 4 (Mus musculus, UniProt Q9QUQ5); assay: calcium entry via TRPC4 opening agents – cell-based, HEK293 TRPC4/mu-opioid, Fluo-4 calcium, dose response (AID 434937); format: functional
# T8 sequence (Q9QUQ5 whole entry): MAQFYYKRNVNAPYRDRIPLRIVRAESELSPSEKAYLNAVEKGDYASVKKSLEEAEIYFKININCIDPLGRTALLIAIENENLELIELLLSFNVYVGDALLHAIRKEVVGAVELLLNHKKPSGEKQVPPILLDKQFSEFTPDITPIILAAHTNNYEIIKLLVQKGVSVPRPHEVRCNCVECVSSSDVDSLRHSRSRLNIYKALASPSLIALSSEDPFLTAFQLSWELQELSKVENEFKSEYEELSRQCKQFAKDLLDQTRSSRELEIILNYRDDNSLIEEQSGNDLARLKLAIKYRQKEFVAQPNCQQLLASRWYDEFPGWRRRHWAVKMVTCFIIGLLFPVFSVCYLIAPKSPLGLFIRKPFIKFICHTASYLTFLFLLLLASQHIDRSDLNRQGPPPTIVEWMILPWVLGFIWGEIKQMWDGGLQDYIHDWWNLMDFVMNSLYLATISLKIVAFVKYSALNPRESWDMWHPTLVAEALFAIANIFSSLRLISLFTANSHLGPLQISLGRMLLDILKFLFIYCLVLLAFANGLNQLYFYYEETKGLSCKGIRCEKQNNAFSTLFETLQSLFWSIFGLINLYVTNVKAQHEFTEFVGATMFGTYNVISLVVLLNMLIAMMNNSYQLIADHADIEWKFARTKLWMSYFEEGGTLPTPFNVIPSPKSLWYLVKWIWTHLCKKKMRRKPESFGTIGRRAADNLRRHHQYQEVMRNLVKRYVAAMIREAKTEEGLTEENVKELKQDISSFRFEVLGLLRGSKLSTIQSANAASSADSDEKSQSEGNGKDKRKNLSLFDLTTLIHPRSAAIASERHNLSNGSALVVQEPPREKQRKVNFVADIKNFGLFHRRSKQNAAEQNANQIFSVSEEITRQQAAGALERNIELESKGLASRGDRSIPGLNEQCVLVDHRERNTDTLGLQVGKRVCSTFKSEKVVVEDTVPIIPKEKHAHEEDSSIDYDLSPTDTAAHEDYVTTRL
# [27] = inhibition of ARNT PAS-B/TACC3 complex formation – biochemical, AlphaScreen, cherry-picked samples, confirmation (AID 651703); format: functional, Homo sapiens;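 further: His-tagged ARNT PAS-B domain paired with GST-TACC3 E629A dimer coactivator fragment; potency of inhibitors that break up the complex and lower AlphaScreen signal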
# [28] = target: T8, Short transient receptor potential channel 4; assay: block of DAMGO-driven TRPC4 calcium entry – cell-based, HEK293 TRPC4/mu-opioid, Fluo-4 calcium, dose response (AID 434942); format: functional;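 further: potency of inhibitors blocking the TRPC4 calcium response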
# [29] = target: T9, Rac GTPase-activating protein 1 (Homo sapiens, UniProt Q9H0H5); assay: blockers of MgcRacGAP-driven Rac1 GTP hydrolysis – biochemical, ADP Hunter fluorescence, primary and confirmatory, confirmation (AID 624330); format: functional
# T9 sequence (Q9H0H5 whole entry): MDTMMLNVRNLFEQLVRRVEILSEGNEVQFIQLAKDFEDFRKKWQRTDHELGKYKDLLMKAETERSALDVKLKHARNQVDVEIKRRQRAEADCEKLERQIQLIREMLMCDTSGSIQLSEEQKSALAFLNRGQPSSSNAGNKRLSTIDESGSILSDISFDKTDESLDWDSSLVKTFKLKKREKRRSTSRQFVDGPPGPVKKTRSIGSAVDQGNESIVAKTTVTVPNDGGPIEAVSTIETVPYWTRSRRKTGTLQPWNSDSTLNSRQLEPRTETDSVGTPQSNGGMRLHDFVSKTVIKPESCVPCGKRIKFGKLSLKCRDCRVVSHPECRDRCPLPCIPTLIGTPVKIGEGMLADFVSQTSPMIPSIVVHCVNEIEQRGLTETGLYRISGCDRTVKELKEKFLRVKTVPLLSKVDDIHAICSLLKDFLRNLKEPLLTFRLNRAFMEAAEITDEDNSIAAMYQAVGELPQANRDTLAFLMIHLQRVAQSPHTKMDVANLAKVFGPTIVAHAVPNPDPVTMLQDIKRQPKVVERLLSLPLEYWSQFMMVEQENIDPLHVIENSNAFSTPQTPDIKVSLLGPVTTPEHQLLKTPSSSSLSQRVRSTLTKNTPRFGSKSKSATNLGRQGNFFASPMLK
# [30] = target: Heat shock protein HSP 90-alpha (Homo sapiens, UniProt P07900); format: functional, organism-based
# [31] = viability loss in HeLa cells – cytotoxicity control for MgcRacGAP inhibitor project, dose response (AID 624300); format: functional
# [32] = Fluorescence-based cell-based high throughput dose response assay for inhibitors of the interaction of nucleotide-binding oligomerization domain containing 2 (NOD2) and the receptor-interacting serine-threonine kinase 2 (RIPK2).; format: functional; conditions: Homo sapiens
# Beta Lactamase = Beta Lactamase (Pseudomonas aeruginosa, UniProt Q932Y6); assay: BLA reporter interference, concentration series – BLA reporter cells, FRET fluorescence, artefact control for NOD2-RIPK2 interaction inhibitor project, dose response (AID 651552); format: functional, cell-based
# T6 sequence (Q92731 whole entry): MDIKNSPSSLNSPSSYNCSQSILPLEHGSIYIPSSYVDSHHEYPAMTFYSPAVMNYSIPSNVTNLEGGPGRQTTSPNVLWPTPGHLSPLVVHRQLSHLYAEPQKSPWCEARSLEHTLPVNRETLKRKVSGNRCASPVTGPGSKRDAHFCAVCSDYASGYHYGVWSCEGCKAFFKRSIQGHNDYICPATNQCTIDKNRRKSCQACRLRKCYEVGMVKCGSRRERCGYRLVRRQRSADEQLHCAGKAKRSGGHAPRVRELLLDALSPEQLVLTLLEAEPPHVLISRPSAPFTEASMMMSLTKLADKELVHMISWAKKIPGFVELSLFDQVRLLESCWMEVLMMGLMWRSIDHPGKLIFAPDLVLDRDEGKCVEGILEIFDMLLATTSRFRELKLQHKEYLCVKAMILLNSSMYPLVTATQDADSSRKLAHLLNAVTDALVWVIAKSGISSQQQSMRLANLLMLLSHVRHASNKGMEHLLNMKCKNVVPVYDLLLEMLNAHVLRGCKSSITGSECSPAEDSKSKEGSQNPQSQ
# T7 sequence (P10145 whole entry): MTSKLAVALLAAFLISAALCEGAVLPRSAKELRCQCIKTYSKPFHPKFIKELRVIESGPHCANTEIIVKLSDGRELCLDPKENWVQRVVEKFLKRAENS
# Paired box protein Pax-8, sequence (Q06710 whole entry): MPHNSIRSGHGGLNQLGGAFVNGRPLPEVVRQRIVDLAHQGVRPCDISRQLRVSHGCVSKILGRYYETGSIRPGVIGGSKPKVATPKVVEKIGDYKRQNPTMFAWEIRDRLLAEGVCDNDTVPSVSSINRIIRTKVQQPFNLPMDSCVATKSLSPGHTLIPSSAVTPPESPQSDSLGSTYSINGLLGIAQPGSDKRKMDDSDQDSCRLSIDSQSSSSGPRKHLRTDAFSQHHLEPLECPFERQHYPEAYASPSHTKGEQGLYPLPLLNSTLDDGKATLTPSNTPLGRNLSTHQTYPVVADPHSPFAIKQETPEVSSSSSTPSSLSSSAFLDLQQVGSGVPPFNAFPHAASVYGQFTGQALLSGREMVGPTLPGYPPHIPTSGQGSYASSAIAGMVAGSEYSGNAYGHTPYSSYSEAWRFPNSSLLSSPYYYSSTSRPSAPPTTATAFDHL
# T5 sequence (P63165 whole entry): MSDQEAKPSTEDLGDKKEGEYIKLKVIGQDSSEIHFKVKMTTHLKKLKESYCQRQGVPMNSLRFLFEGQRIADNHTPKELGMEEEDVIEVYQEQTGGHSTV
# T1 sequence (Q38C91 whole entry): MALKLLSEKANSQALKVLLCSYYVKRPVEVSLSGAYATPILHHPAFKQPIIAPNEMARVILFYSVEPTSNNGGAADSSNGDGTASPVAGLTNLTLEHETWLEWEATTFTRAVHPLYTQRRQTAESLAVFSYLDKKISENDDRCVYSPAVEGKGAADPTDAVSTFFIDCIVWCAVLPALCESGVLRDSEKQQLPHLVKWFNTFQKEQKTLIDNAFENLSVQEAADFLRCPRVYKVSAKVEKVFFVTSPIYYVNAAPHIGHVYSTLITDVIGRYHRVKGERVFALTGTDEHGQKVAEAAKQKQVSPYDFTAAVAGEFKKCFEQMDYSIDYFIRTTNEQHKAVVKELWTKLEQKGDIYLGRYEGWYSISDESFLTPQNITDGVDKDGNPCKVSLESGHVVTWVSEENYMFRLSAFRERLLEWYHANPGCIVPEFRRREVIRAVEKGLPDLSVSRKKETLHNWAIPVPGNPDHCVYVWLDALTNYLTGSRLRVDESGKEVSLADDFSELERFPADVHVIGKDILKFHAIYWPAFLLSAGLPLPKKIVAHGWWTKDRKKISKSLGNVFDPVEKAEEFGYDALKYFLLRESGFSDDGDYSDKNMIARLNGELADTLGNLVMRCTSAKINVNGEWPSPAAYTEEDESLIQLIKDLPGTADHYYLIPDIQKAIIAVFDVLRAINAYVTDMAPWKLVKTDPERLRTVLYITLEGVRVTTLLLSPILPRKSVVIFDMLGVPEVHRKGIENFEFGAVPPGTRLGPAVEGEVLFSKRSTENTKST
# T4 sequence (Q79MP6 whole entry): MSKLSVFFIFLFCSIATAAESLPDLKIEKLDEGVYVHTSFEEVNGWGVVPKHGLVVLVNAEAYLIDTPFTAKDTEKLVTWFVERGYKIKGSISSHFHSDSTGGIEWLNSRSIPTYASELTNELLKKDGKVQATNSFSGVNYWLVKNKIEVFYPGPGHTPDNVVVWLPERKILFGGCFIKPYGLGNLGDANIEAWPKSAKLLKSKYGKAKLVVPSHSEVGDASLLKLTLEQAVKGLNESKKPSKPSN
# T3 sequence (P49327 whole entry): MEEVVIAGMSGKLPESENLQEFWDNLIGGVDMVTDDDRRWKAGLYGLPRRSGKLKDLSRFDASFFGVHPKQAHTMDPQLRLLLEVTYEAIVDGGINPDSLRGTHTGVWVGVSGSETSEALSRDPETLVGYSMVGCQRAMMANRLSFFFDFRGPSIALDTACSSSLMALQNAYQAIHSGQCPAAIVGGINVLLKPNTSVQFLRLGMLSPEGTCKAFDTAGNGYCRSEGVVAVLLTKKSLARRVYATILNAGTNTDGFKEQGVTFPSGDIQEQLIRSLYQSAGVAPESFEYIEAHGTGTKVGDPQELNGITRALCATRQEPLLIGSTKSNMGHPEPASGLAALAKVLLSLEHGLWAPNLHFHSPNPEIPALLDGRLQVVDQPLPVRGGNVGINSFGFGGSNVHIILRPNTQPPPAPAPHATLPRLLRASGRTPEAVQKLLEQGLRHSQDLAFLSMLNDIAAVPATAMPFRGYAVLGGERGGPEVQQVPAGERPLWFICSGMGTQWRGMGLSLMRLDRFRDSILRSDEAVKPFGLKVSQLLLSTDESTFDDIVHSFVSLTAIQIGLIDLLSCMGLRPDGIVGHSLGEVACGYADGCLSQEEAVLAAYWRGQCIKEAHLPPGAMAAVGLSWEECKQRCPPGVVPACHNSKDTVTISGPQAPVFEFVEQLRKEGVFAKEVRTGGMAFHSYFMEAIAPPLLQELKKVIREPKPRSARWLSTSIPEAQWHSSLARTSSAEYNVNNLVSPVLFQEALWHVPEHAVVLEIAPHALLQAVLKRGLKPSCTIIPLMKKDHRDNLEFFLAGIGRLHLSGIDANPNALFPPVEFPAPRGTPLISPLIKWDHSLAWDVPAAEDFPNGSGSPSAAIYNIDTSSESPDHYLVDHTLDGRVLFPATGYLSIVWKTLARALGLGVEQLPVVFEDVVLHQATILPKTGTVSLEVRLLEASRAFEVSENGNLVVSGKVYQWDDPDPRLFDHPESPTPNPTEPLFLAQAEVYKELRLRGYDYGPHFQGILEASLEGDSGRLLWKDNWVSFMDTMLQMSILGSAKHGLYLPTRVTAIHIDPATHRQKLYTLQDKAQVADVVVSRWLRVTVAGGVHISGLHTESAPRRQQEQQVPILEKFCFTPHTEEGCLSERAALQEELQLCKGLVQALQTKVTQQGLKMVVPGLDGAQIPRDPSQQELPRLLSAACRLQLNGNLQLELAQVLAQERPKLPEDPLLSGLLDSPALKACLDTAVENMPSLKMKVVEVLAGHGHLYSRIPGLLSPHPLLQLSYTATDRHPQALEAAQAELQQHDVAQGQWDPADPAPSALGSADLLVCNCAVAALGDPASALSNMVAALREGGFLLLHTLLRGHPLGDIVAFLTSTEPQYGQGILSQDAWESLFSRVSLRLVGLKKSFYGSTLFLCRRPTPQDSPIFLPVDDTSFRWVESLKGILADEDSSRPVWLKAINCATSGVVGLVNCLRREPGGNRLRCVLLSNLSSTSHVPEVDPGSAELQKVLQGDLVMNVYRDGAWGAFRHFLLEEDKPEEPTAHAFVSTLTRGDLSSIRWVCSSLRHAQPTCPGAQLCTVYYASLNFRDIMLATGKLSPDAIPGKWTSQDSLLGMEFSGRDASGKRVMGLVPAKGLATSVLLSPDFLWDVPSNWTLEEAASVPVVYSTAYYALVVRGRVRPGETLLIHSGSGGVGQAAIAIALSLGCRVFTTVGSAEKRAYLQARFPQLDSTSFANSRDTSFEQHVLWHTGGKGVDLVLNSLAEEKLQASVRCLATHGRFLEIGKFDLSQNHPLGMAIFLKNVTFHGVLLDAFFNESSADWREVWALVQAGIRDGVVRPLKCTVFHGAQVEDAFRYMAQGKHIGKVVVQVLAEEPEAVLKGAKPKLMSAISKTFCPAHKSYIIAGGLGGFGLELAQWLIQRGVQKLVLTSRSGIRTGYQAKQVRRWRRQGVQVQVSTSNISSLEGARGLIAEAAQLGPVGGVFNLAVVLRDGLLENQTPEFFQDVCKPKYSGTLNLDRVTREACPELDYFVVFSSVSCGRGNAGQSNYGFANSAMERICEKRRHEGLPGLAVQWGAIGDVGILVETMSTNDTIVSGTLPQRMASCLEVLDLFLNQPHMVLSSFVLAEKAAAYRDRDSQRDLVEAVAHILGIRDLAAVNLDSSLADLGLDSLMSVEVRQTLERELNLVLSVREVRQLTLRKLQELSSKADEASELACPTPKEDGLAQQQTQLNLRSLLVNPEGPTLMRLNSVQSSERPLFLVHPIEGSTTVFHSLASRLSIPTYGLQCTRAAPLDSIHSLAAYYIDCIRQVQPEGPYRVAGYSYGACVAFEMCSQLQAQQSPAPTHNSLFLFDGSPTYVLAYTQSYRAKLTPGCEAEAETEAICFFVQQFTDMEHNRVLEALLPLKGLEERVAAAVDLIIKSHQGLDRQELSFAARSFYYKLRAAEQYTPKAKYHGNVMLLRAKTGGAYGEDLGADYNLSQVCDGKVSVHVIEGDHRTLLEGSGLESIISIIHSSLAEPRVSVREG
# Beta-lactamase (Salmonella choleraesuis (strain SC-B67), UniProt Q5J463), sequence (Q5J463 whole entry): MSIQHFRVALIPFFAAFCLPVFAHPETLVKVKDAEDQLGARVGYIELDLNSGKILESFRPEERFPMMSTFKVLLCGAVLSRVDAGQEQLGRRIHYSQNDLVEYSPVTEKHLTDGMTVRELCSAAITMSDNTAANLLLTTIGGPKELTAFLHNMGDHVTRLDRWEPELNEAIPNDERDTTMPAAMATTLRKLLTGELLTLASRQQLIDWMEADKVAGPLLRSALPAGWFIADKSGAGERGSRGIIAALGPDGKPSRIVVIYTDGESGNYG
smiles,measurement,setting,value
Cc1cccc(NC(=O)CCNC(=O)c2ccc(Br)cc2)c1,IC50,[1],12.9 µM (inactive)
same,IC50,[2],5.8 µM (active)
same,IC50,[3],83.3 µM (inactive)
CCOc1ccccc1NC(=O)c1nc(S(=O)(=O)Cc2cccc(C)c2)ncc1Cl,EC50,[4],> 120 µM (not active)
same,AC50,[5],6.38 µM (active)
same,AC50,Paired box protein Pax-8,7.71 µM (active)
same,EC50,[6],11.5 µM (active)
same,EC50,Streptokinase A,1.28 µM (active)
same,IC50,Fatty acid synthase [7],11.5 µM (active)
same,AC50,[8],24.4 µM (active)
same,EC50,[9],12 µM (active)
same,AC50,[10],18.8 µM (active)
same,EC50,Streptococcus,15.7 µM (active)
same,AC50,INS1,5.15 µM (active)
same,EC50,[11],10.9 µM (active)
same,EC50,[12],8.12 µM (active)
same,IC50,Fatty acid synthase [13],3.06 µM (active)
same,AC50,[14],324 nM (active)
O=C(NCCCN1CCN(c2ccccc2F)CC1)C1CCC(=O)N1C1CCCCC1 (stereo unspecified),EC50,[15],76.1 µM (inactive)
same,EC50,Mu-type opioid receptor,92.5 µM (inactive)
NC(=O)SCC(=O)Nc1ccccc1C(=O)O,IC50,Beta-lactamase [16],24.1 µM (inactive)
same,IC50,Beta-lactamase [17],> 59.6 µM (inactive)
same,IC50,Beta-lactamase [18],> 59.6 µM (inactive)
CC(C)OCCCNC(=O)c1ccncc1,AC50,[19],37.6 µM (active)
Cc1nc2cc(-c3ccsc3-n3c(C)ccc3C)nn2c(O)c1Cl,IC50,[20],10.7 µM (active)
same,IC50,Estrogen receptor,27.5 µM (active)
same,IC50,Estrogen receptor beta [21],7.66 µM (active)
same,IC50,[22],> 66.6 µM (inactive)
same,IC50,Estrogen receptor beta [23],1.53 µM (not active)
Cc1cc(N2CCOCC2)c2c(N)c(Br)cc(C)c2n1,IC50,Interleukin-8 [24],8.34 µM (active)
same,IC50,Interleukin-8 [25],> 79 µM (inactive)
same,AC50,HEK293,8.08 µM (active)
COc1cccc(CNCc2ccccn2)c1OC,EC50,[26],267 nM (active)
same,AC50,[27],116 µM (active)
same,EC50,[28],299 nM (active)
O=C1/C(=C\c2ccc(Cl)c(Cl)c2)CN(C(=O)CCN2CCOCC2)C/C1=C/c1ccc(Cl)c(Cl)c1,AC50,Paired box protein Pax-8,2.65 µM (active)
same,IC50,[29],121 µM (active)
same,AC50,[30],2.98 µM (active)
same,CC50,[31],16.9 µM (active)
same,IC50,[32],614 nM (active)
same,IC50,Beta Lactamase,31.4 µM (inactive)
